For orientation: pIC50 means the IC50 on a negative log10 scale, so that one unit is a factor of ten. Low readings indicate a large IC50, high ones a small IC50.

pIC50: −log10 of the molar value.

In this experiment the target is T1, human BTK (Homo sapiens, UniProt Q06187).
T1 construct: GST (Glutathione-S-Transferase) (cleaved yes); made in house; host or cells: Spodoptera frugiperda Sf9 cells (baculovirus, Bac-to-Bac)
T1 sequence (Q06187 382-659): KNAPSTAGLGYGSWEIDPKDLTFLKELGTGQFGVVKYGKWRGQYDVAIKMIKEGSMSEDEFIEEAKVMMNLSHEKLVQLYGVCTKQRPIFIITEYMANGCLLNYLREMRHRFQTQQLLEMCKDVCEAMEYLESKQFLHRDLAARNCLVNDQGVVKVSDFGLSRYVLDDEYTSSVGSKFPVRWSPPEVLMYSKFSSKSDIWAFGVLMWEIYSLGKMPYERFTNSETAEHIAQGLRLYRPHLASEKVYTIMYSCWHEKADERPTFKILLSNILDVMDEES
The experiment can be described thus: BTK inhibition assay: BTK-mediated phosphorylation of FAM-labeled substrate 5-FAM-EEPLYWSFPAKKK-NH2 (Caliper LC-3000). In kind it is biochemical. The conditions noted are these: pIC50 = -log(IC50), IC50 molar; residues 382 to 659 of human BTK; incubated at room temperature for 60 minutes; larger values represent higher potency.
In the case of `Cc1ccc2c(N)c(C(N)=O)nnc2c1-c1ccc2c(C#N)n[nH]c2c1` [Example 96, 4-amino-8-(3-cyano-1H-indazol-6-yl)-7-methylcinnoline-3-carboxamide], the pIC50 is 6.80. As for `Cc1ccc2c(N)c(C(N)=O)nnc2c1-c1cnc2ncn(C)c2c1` [Example 97, 4-amino-7-methyl-8-(1-methyl-1H-imidazo[4,5-b]pyridin-6-yl)cinnoline-3-carboxamide], the pIC50 is 7.00. In turn, `Cc1ccc2c(N)c(C(N)=O)nnc2c1-c1cnc2c(c1)ncn2C` [Example 98, 4-amino-7-methyl-8-(3-methyl-3H-imidazo[4,5-b]pyridin-6-yl)cinnoline-3-carboxamide] had a pIC50 of 5.30.

The compound `Cc1ccc2c(N)c(C(N)=O)nnc2c1-c1ccc2c(C)n[nH]c2c1` [Example 99, 4-amino-7-methyl-8-(3-methyl-1H-indazol-6-yl)cinnoline-3-carboxamide] showed a pIC50 of 7.20. To `Cc1ccc2c(N)c(C(N)=O)nnc2c1-c1ccc2c(F)n[nH]c2c1` [Example 100, 4-amino-8-(3-fluoro-1H-indazol-6-yl)-7-methylcinnoline-3-carboxamide] belongs 7.60; to `Cc1ccc2c(N)c(C(N)=O)nnc2c1-c1cc(F)c2nc[nH]c2c1` [Example 101, 4-amino-8-(4-fluoro-1H-benzo[d]imidazol-6-yl)-7-methylcinnoline-3-carboxamide], 7.50; to `Cc1ccc2c(N)c(C(N)=O)nnc2c1-c1cc(F)c2cn[nH]c2c1` [Example 102, 4-amino-8-(4-fluoro-1H-indazol-6-yl)-7-methylcinnoline-3-carboxamide], 7.60. Consider `COc1cc2[nH]ncc2cc1-c1cccc2c(N)c(C(N)=O)nnc12` [Example 103, 4-amino-8-(6-methoxy-1H-indazol-5-yl)cinnoline-3-carboxamide], for which the negative-log IC50 (pIC50) was 8.40. To `Cc1ccc2c(N)c(C(N)=O)nnc2c1-c1ccc2cn[nH]c2c1F` [Example 104, 4-amino-8-(7-fluoro-1H-indazol-6-yl)-7-methylcinnoline-3-carboxamide] belongs 7.50. For `NC(=O)c1nnc2c(-c3cc4[nH]ncc4cc3Cl)cccc2c1N` [Example 105, 4-amino-8-(5-chloro-1H-indazol-6-yl)cinnoline-3-carboxamide], the pIC50 is 7.80. `Cc1ccc2c(N)c(C(N)=O)nnc2c1-c1ccc2c(C3CC3)n[nH]c2c1` [Example 106, 4-amino-8-(3-cyclopropyl-1H-indazol-6-yl)-7-methylcinnoline-3-carboxamide] gave a pIC50 of 6.30.

Take `NC(=O)c1nnc2c(-c3cc4[nH]ncc4cc3Cl)ccc(F)c2c1N` [Example 107, 4-amino-8-(5-chloro-1H-indazol-6-yl)-5-fluorocinnoline-3-carboxamide]: the pIC50 is 7.80. To `Cc1ccc2c(N)c(C(N)=O)nnc2c1-c1ccc2c(Cl)n[nH]c2c1` [Example 108, 4-amino-8-(3-chloro-1H-indazol-6-yl)-7-methylcinnoline-3-carboxamide] belongs 7.40. `COc1cc2[nH]ncc2cc1-c1ccc(F)c2c(N)c(C(N)=O)nnc12` [Example 109, 4-amino-5-fluoro-8-(6-methoxy-1H-indazol-5-yl)cinnoline-3-carboxamide] showed a pIC50 of 8.70. Then `COc1cc2cn[nH]c2cc1-c1cccc2c(N)c(C(N)=O)nnc12` [Example 110, 4-amino-8-(5-methoxy-1H-indazol-6-yl)cinnoline-3-carboxamide], with 8.40; and `COc1cc2cn[nH]c2cc1-c1ccc(F)c2c(N)c(C(N)=O)nnc12` [Example 111, 4-amino-5-fluoro-8-(5-methoxy-1H-indazol-6-yl)cinnoline-3-carboxamide], with 8.70; and `Cc1ccc2c(N)c(C(N)=O)nnc2c1-c1ccc2nncn2c1` [Example 112, 8-([1,2,4]triazolo[4,3-a]pyridin-6-yl)-4-amino-7-methylcinnoline-3-carboxamide], with 7.00.

In turn, `Cc1ccc2c(N)c(C(N)=O)nnc2c1-c1ccc2cncn2c1` [Example 113, 4-amino-8-(imidazo[1,5-a]pyridin-6-yl)-7-methylcinnoline-3-carboxamide] had a pIC50 of 7.70. `Cc1ccc2c(N)c(C(N)=O)nnc2c1-c1ccn2cncc2c1` [Example 114, 4-amino-8-(imidazo[1,5-a]pyridin-7-yl)-7-methylcinnoline-3-carboxamide] gave a pIC50 of 8.40.

As for `NC(=O)c1nnc2c(-c3ccc4nc(-c5ccccc5)[nH]c4c3)cccc2c1N` [Example 115, 4-amino-8-(2-phenyl-1H-benzo[d]imidazol-6-yl)cinnoline-3-carboxamide], the pIC50 was 7.10. In turn, `NC(=O)c1nnc2c(-c3ccc4nc(-c5ccc(F)cc5)[nH]c4c3)cccc2c1N` [Example 116, 4-amino-8-(2-(4-fluorophenyl)-1H-benzo[d]imidazol-6-yl)cinnoline-3-carboxamide] showed a pIC50 of 7.40.

The compound `CC(C)(C)c1ccc(-c2nc3ccc(-c4cccc5c(N)c(C(N)=O)nnc45)cc3[nH]2)cc1` [Example 117, 4-amino-8-(2-(4-tert-butylphenyl)-1H-benzo[d]imidazol-6-yl)cinnoline-3-carboxamide] showed a pIC50 of 7.10.

As to `NC(=O)c1nnc2c(-c3ccc4nc(-c5ccc(F)cc5F)[nH]c4c3)cccc2c1N` [Example 118, 4-amino-8-(2-(2,4-difluorophenyl)-1H-benzo[d]imidazol-6-yl)cinnoline-3-carboxamide], the negative-log IC50 (pIC50) is 7.00. To `Cc1ccc2c(N)c(C(N)=O)nnc2c1-c1ccc2nc(-c3ccc(F)cc3)[nH]c2c1` [Example 120, 4-amino-8-(2-(4-fluorophenyl)-1H-benzo[d]imidazol-6-yl)-7-methylcinnoline-3-carboxamide] belongs 7.60; to `NC(=O)c1nnc2c(-c3ccc4c(c3)CN(c3ccccc3)C4=O)cccc2c1N` [Example 121, 4-amino-8-(1-oxo-2-phenylisoindolin-5-yl)cinnoline-3-carboxamide], 6.90; to `NC(=O)c1nnc2c(-c3ccc4c(c3)CNC4=O)cccc2c1N` [Example 122], 7.70.

`CN1Cc2cc(-c3cccc4c(N)c(C(N)=O)nnc34)ccc2C1=O` [Example 123, 4-amino-8-(2-methyl-1-oxoisoindolin-5-yl)cinnoline-3-carboxamide] gave a pIC50 of 6.70. For the compound `Cc1ccc2c(N)c(C(N)=O)nnc2c1-c1ccc2c(c1)CNC2=O` [Example 124, 4-amino-7-methyl-8-(1-oxoisoindolin-5-yl)cinnoline-3-carboxamide], the pIC50 is 8.20.

`NC(=O)c1nnc2c(-c3ccc4c(c3)CNC4=O)ccc(F)c2c1N` [Example 125, 4-amino-5-fluoro-8-(1-oxoisoindolin-5-yl)cinnoline-3-carboxamide] gave a pIC50 of 7.40.

With `Cc1cc(F)c2c(N)c(C(N)=O)nnc2c1-c1ccc2c(c1)CNC2=O` [Example 126, 4-amino-5-fluoro-7-methyl-8-(1-oxoisoindolin-5-yl)cinnoline-3-carboxamide], the pIC50 is 7.90. Compound `CC(C)(O)CCN1Cc2cc(-c3cccc4c(N)c(C(N)=O)nnc34)ccc2C1=O` [Example 127, 4-amino-8-(2-(3-hydroxy-3-methylbutyl)-1-oxoisoindolin-5-yl)cinnoline-3-carboxamide] showed a pIC50 of 7.60.
